Measured values: patent publication US11547697B2, “Heterocyclic compounds and uses thereof” (MILLENNIUM PHARMACEUTICALS, INC., priority 2009, dated 2023)
pIC50: −log10 of the molar value. Where two headings read alike, the source gives them in different places.

How the values were obtained:
Format in all cases: biochemical
[1] = molecular target: p110γ (Homo sapiens (Human), UniProt P48736); assay: PI 3-Kinase (human) HTRF assay, p110γ
Procedure: An exemplary system is PI 3-Kinase (human) HTRF™ Assay from Upstate. […] Briefly, the assay is a time resolved FRET assay that indirectly measures PIP3 product formed by the activity of a PI3-K. The kinase reaction is performed in a microtitre plate (e.g., a 384 well microtitre plate). The total reaction volume is approximately 20 ul per well. In the first step, each well receives 2 ul of test compound in 20% dimethylsulphoxide resulting in a 2% DMSO final concentration. Next, approximately 14.5 ul of a kinase/PIP2 mixture (diluted in 1× reaction buffer) is added per well for a final concentration of 0.25-0.3 ug/ml kinase and 10 μM PIP2. The plate is sealed and incubated for 15 minutes at room temperature. To start the reaction, 3.5 ul of ATP (diluted in 1× reaction buffer) is added per well for a final concentration of 10 μM ATP. The plate is sealed and incubated for 1 hour at room temperature. The reaction is stopped by adding 5 ul of Stop Solution per well and then 5 ul of Detection Mix is added per well. The plate is sealed, incubated for 1 hour at room temperature, and then read on an appropriate plate reader. Data is analyzed and IC50s are generated using GraphPad Prism 5. […] For PI3K α, β, δ, and γ, the nM concentration of inhibitor to reach IC50 is provided.

[2] = molecular target: p110β/p85α (Homo sapiens (Human), UniProt P42338); assay: PI 3-Kinase (human) HTRF assay, p110β/p85α
[3] = molecular target: p110α/p85α (Homo sapiens (Human), UniProt P42336); assay: PI 3-Kinase (human) HTRF assay, p110α/p85α
[4] = in vitro, read-out: PI3K β IC50
[5] = in vitro, read-out: PI3K α IC50
[6] = in vitro, read-out: PI3K γ IC50

Chain of p110α/p85α (P42336 whole entry): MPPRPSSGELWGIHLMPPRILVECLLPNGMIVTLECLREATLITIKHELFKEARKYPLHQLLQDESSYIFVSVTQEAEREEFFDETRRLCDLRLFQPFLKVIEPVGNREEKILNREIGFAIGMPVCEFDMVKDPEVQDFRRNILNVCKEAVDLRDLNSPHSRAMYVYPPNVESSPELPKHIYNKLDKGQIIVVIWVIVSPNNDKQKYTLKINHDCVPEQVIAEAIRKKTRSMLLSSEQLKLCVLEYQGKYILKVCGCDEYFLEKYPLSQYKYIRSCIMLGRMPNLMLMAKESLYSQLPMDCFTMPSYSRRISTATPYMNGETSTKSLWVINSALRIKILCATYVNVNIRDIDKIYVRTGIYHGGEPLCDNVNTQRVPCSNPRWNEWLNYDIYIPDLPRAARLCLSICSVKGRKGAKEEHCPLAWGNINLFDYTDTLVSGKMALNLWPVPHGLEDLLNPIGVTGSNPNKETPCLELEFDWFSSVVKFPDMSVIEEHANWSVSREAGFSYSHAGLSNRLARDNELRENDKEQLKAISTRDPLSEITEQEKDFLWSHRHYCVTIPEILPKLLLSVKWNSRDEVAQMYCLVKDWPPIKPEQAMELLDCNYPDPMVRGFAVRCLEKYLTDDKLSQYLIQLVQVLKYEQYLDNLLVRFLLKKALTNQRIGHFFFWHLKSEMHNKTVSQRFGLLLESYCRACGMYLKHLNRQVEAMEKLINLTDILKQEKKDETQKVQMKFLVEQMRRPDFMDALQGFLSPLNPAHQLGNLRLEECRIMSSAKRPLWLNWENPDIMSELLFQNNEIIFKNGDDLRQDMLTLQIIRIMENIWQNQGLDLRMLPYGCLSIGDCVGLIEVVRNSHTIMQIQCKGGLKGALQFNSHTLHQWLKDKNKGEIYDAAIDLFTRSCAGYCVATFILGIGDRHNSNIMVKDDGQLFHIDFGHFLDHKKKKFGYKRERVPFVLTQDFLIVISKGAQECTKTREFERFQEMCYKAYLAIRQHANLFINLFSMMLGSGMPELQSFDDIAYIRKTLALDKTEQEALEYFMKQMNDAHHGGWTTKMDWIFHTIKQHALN
Chain of p110α/p85α (P27986 whole entry partner): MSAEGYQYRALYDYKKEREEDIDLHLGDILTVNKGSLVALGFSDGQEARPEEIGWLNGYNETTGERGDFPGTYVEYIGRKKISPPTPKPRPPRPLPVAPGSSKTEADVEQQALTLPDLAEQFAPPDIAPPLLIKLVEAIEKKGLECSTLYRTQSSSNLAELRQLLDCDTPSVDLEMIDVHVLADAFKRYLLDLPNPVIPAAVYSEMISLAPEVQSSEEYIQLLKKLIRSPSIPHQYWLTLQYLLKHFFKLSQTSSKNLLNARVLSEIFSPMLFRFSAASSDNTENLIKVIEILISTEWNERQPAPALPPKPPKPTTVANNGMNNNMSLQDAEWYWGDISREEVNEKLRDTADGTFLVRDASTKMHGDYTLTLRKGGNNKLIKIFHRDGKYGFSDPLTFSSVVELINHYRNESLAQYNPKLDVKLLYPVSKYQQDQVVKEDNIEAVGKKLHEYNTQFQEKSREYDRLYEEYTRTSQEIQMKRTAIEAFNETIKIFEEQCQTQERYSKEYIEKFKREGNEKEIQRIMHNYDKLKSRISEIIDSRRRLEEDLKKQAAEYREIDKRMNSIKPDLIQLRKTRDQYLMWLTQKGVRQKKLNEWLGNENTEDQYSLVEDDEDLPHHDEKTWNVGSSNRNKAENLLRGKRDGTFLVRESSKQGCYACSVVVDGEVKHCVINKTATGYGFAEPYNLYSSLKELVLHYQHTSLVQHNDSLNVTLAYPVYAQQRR
Chain of p110γ (P48736 whole entry): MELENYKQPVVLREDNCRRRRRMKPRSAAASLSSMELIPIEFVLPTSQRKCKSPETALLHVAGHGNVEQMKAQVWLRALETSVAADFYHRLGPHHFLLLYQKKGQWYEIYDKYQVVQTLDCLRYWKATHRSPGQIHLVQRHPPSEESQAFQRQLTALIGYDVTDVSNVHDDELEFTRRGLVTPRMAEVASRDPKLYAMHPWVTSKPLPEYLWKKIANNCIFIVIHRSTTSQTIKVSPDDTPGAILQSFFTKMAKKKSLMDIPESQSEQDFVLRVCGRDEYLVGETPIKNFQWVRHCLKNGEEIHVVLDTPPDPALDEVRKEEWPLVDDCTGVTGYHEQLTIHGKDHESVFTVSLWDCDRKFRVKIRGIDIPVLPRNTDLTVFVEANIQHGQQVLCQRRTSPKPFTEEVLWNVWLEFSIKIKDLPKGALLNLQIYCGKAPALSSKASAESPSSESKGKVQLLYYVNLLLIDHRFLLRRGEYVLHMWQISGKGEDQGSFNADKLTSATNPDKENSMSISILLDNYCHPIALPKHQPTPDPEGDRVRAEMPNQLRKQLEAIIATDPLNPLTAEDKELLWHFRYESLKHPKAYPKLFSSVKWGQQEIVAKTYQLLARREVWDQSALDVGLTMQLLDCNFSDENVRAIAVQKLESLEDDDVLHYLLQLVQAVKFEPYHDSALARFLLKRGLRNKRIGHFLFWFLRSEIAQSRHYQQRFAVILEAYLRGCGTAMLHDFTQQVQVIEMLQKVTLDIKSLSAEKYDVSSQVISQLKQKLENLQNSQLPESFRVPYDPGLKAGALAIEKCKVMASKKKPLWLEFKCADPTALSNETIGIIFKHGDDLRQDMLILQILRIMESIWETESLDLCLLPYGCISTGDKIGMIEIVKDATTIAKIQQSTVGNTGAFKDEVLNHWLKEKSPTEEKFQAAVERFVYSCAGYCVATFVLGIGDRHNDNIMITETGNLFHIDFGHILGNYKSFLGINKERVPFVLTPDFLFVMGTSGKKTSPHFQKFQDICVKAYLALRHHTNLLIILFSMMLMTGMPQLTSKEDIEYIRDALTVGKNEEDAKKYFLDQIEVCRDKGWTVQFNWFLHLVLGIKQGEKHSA
Chain of p110β/p85α (P42338 whole entry): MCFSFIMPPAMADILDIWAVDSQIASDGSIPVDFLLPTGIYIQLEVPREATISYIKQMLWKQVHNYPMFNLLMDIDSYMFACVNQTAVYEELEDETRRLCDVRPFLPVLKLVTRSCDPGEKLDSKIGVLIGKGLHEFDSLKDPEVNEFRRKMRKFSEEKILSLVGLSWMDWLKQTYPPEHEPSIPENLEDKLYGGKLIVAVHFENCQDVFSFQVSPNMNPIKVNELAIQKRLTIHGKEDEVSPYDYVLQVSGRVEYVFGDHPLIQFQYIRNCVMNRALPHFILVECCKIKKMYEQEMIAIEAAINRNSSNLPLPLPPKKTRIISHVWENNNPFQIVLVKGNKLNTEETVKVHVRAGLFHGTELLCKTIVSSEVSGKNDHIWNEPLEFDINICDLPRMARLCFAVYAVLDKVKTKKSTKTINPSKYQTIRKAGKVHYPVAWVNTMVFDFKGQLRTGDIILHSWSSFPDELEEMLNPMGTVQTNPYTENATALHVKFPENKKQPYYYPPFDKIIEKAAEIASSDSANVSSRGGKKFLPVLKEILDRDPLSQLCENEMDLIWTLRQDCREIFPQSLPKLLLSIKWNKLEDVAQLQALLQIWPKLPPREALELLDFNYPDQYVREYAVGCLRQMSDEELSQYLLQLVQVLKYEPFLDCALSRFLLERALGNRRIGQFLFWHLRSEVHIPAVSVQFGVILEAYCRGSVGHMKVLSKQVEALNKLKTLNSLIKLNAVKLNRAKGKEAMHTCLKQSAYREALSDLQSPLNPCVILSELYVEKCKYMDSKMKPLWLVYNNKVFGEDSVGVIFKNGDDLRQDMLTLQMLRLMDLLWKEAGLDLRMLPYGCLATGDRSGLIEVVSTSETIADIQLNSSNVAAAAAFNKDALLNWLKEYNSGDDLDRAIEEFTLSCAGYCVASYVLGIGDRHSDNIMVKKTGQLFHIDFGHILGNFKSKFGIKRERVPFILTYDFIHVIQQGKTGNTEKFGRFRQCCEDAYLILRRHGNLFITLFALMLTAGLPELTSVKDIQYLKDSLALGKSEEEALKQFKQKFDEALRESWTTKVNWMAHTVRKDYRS
Chain of p110β/p85α (P27986 whole entry partner): as the sequence (P27986 whole entry partner) above

Nc1nc2cc(-c3ccc4ncc(C(=O)N5CCCCC5)n4c3)ccc2o1 [compound 196]
pIC50 ([1]; read-out: PI3K γ IC50): > 5.00
pIC50 ([2]; read-out: PI3K β IC50): > 5.00
pIC50 ([3]; read-out: PI3K α IC50): > 6.00

CCN1CCC(n2cnc3ccc(-c4ccc5oc(N)nc5c4)cc3c2=O)CC1 [compound 73]
pIC50 ([2]; read-out: PI3K β IC50): > 5.00
pIC50 ([3]; read-out: PI3K α IC50): > 6.00

Nc1nc2ccc(-c3ccc4ncc(C(=O)N5CCOCC5)n4c3)cc2o1 [compound 124]
pIC50 ([1]; read-out: PI3K γ IC50): > 6.00
pIC50 ([2]; read-out: PI3K β IC50): > 6.00
pIC50 ([3]; read-out: PI3K α IC50): > 6.00

C[C@H]1CN(c2cnc3ccc(-c4ccc5sc(N)nc5c4)cc3n2)CCN1 [compound 307]
pIC50 [2, 4]: > 6.00
pIC50 [3, 5]: > 6.00

Nc1nc2cc(-c3ccc4ncc(C(=O)N5CC6CCC(C5)O6)n4c3)ccc2o1 [compound 504]
pIC50 ([1]; read-out: PI3K γ In Vitro IC50): > 7.00
pIC50 ([2]; read-out: PI3K β In Vitro IC50): > 5.00
pIC50 ([3]; read-out: PI3K α In Vitro IC50): > 6.00

Nc1nc2cc(-c3ccn4ncc(C(=O)N5CCCC5)c4c3)ccc2o1 [compound 346]
pIC50 [1, 6]: > 6.00
pIC50 [2, 4]: > 5.00
pIC50 [3, 5]: > 7.00

CN1CCC(c2cnc3ccc(-c4ccc5oc(N)nc5c4)cc3n2)CC1 [compound 385]
pIC50 [2, 4]: > 5.00
pIC50 [3, 5]: > 7.00

C[C@H]1CN(c2cnc3cccc(-c4ccc5nc(N)oc5c4)c3n2)CCN1 [compound 343]
pIC50 [2, 4]: > 5.00

Nc1cn2cc(-c3ccc4nc(N)oc4c3)ccc2n1 [compound 247]
pIC50 [1, 6]: > 5.00
pIC50 [2, 4]: > 5.00

Cc1cc2oc(N)nc2cc1-c1ccc2ncc(N3CCN[C@@H](C)C3)nc2c1 [compound 351]
pIC50 [2, 4]: > 6.00
pIC50 [3, 5]: > 5.00

Nc1nc2ccc(-c3ccc4nc(N)sc4c3)cc2o1 [compound 243]
pIC50 [1, 6]: > 7.00
pIC50 [2, 4]: > 7.00
pIC50 [3, 5]: > 6.00

C[C@H]1CN(c2cnc3ccc(-c4ccc5oc(N)nc5c4)cc3c2)CCN1 [compound 396]
pIC50 [1, 6]: > 5.00
pIC50 [2, 4]: > 7.00
pIC50 [3, 5]: > 7.00

Nc1nc2cc(-c3ccc4nnc(-c5ccncc5)n4c3)ccc2o1 [compound 229]
pIC50 [1, 6]: > 5.00
pIC50 [2, 4]: > 6.00
pIC50 [3, 5]: > 6.00

Nc1nc2cc(-c3ccn4ncc(C(=O)N5CCOCC5)c4c3)ccc2o1 [compound 347]
pIC50 [1, 6]: > 6.00
pIC50 [2, 4]: > 5.00
pIC50 [3, 5]: > 6.00

Nc1cn2cc(-c3ccc4oc(N)nc4c3)ccc2n1 [compound 245]
pIC50 [1, 6]: > 6.00
pIC50 [2, 4]: > 5.00
pIC50 [3, 5]: > 6.00

Nc1nc2cc(-c3ccc4sc(N)nc4c3)cc(F)c2o1 [compound 437]
pIC50 ([1]; read-out: PI3K γ In Vitro IC50): > 6.00
pIC50 ([2]; read-out: PI3K β In Vitro IC50): > 6.00
pIC50 ([3]; read-out: PI3K α In Vitro IC50): > 5.00

Nc1nc2cc(-c3ccc4ncc(C(=O)N5CC6(C5)OCCO6)n4c3)ccc2o1 [compound 494]
pIC50 ([1]; read-out: PI3K γ In Vitro IC50): > 6.00
pIC50 ([2]; read-out: PI3K β In Vitro IC50): > 5.00
pIC50 ([3]; read-out: PI3K α In Vitro IC50): > 7.00

C[C@H]1CN(c2cnc3ccc(-c4ccc5nc(N)sc5c4)cc3n2)CCN1 [compound 308]
pIC50 [1, 6]: > 5.00
pIC50 [2, 4]: > 6.00
pIC50 [3, 5]: > 6.00

Nc1nc2cc(-c3ccc4c(N)n[nH]c4c3)ccc2o1 [compound 428]
pIC50 ([1]; read-out: PI3K γ In Vitro IC50): > 6.00
pIC50 ([2]; read-out: PI3K β In Vitro IC50): > 5.00
pIC50 ([3]; read-out: PI3K α In Vitro IC50): > 5.00

CN1CCN(C(=O)c2cnc3ccc(-c4ccc5sc(N)nc5c4)cn23)CC1 [compound 144]
pIC50 ([2]; read-out: PI3K β IC50): > 5.00
pIC50 ([3]; read-out: PI3K α IC50): > 6.00

Nc1nc2cc(-c3ccc4nnc(-c5cccnc5)n4c3)ccc2o1 [compound 300]
pIC50 [2, 4]: > 5.00
pIC50 [3, 5]: > 5.00

CN1CCCN(C(=O)c2cnc3ccc(-c4ccc5oc(N)nc5c4)cn23)CC1 [compound 140]
pIC50 ([2]; read-out: PI3K β IC50): > 5.00
pIC50 ([3]; read-out: PI3K α IC50): > 6.00

CCN1CCN(C(=O)c2cnc3ccc(-c4ccc5oc(N)nc5c4)cn23)CC1 [compound 141]
pIC50 ([1]; read-out: PI3K γ IC50): > 5.00
pIC50 ([3]; read-out: PI3K α IC50): > 6.00

O=C(c1cnc2ccc(-c3ccc(Cl)c(NS(=O)(=O)c4ccccc4)c3)cn12)N1CCOCC1 [compound 459]
pIC50 ([1]; read-out: PI3K γ In Vitro IC50): > 6.00
pIC50 ([3]; read-out: PI3K α In Vitro IC50): > 6.00

Nc1nc2cc(-c3ccc4ncc(C(=O)N5CCC(O)CC5)n4c3)ccc2o1 [compound 162]
pIC50 ([1]; read-out: PI3K γ IC50): > 5.00
pIC50 ([3]; read-out: PI3K α IC50): > 6.00

Nc1nc2ccc(-c3ccc4nnc(-c5cccnc5)n4c3)cc2o1 [compound 301]
pIC50 [2, 4]: > 5.00
pIC50 [3, 5]: > 5.00

CC(C)n1cnc2ccc(-c3ccc4oc(N)nc4c3)cc2c1=O [compound 206]
pIC50 [1, 6]: > 5.00
pIC50 [3, 5]: > 7.00

Nc1nc2cc(-c3ccc4ncc(C(=O)N5CC[C@H](F)C5)n4c3)ccc2o1 [compound 476]
pIC50 ([1]; read-out: PI3K γ In Vitro IC50): > 7.00
pIC50 ([3]; read-out: PI3K α In Vitro IC50): > 7.00

O=C(c1cnc2ccc(-c3cccc(NS(=O)(=O)c4ccccc4)c3)cn12)N1CCOCC1 [compound 453]
pIC50 ([1]; read-out: PI3K γ In Vitro IC50): > 5.00
pIC50 ([3]; read-out: PI3K α In Vitro IC50): > 5.00

CC1CN(C(=O)c2cnc3ccc(-c4ccc5oc(N)nc5c4)cn23)CCN1 (stereo not shown) [compound 164]
pIC50 ([2]; read-out: PI3K β IC50): > 6.00
pIC50 ([3]; read-out: PI3K α IC50): > 6.00

Nc1nc2cc(-c3ccc4ncc(C(=O)N5CC5)n4c3)ccc2o1 [compound 340]
pIC50 [1, 6]: > 6.00
pIC50 [3, 5]: > 6.00

Nc1nc2cc(-c3ccc4ncc(C(=O)N5CCS(=O)(=O)CC5)n4c3)ccc2o1 [compound 107]
pIC50 ([1]; read-out: PI3K γ IC50): > 5.00
pIC50 ([3]; read-out: PI3K α IC50): > 6.00

Cc1ccc(-c2cnc3ccc(-c4ccc5oc(N)nc5c4)cc3n2)cn1 [compound 194]
pIC50 ([1]; read-out: PI3K γ IC50): > 7.00
pIC50 ([3]; read-out: PI3K α IC50): > 7.00

C[C@@H]1CN(c2cnc3ccc(-c4ccc5oc(N)nc5c4)cc3n2)C[C@H](C)O1 [compound 132]
pIC50 ([1]; read-out: PI3K γ IC50): > 5.00
pIC50 ([3]; read-out: PI3K α IC50): > 6.00

Nc1nc2cc(-c3ccc4ncn(C5CC5)c(=O)c4c3)ccc2o1 [compound 254]
pIC50 [1, 6]: > 6.00
pIC50 [3, 5]: > 6.00

Nc1nc2cc(-c3ccc4ncc(C(=O)N5CCC(N)CC5)n4c3)ccc2o1 [compound 204]
pIC50 [2, 4]: > 6.00
pIC50 [3, 5]: > 7.00

Nc1nc2cc(-c3ccc4ncc(N5CC(N6CCOCC6)C5)nc4c3)c(Cl)cc2o1 [compound 371]
pIC50 [2, 4]: > 5.00
pIC50 [3, 5]: > 6.00

C[C@@H]1CN(C(=O)c2cnc3ccc(-c4ccc5oc(N)nc5c4)cn23)C[C@H](C)O1 [compound 106]
pIC50 ([1]; read-out: PI3K γ IC50): > 5.00
pIC50 ([3]; read-out: PI3K α IC50): > 5.00

Cc1cn(-c2cnc3ccc(-c4ccc5oc(N)nc5c4)cc3n2)cn1 [compound 177]
pIC50 ([1]; read-out: PI3K γ IC50): > 6.00
pIC50 ([3]; read-out: PI3K α IC50): > 7.00

CN1CCN(C(=O)c2cnc3ccc(-c4ccc5nc(N)sc5c4)cn23)CC1 [compound 146]
pIC50 ([2]; read-out: PI3K β IC50): > 5.00
pIC50 ([3]; read-out: PI3K α IC50): > 5.00

Nc1nc2cc(-c3ccc4ncc(C(=O)N5CCC(F)CC5)n4c3)ccc2o1 [compound 503]
pIC50 ([1]; read-out: PI3K γ In Vitro IC50): > 7.00
pIC50 ([3]; read-out: PI3K α In Vitro IC50): > 6.00

Nc1nc2cc(-c3ccc4ncc(C(=O)N5CCC(F)(F)CC5)n4c3)ccc2o1 [compound 501]
pIC50 ([1]; read-out: PI3K γ In Vitro IC50): > 5.00
pIC50 ([3]; read-out: PI3K α In Vitro IC50): > 6.00

Cc1ccn(C2CCN(C(=O)c3cnc4ccc(-c5ccc6oc(N)nc6c5)cn34)CC2)n1 [compound 297]
pIC50 [1, 6]: > 5.00
pIC50 [3, 5]: > 6.00

O=C(c1cnc2ccc(-c3ccc4oc(Nc5ccccc5)nc4c3)cn12)N1CCOCC1 [compound 407]
pIC50 ([2]; read-out: PI3K β In Vitro IC50): > 5.00

Nc1ncnc2ccc(-c3ccc4nccc(-c5ccncc5)c4c3)cc12 [compound 8]
pIC50 ([1]; read-out: PI3K γ IC50): > 6.00
pIC50 ([3]; read-out: PI3K α IC50): > 5.00

Nc1nc2cc(-c3ccc4ncc(C(=O)N5CCNCC5)n4c3)ccc2o1 [compound 111]
pIC50 ([2]; read-out: PI3K β IC50): > 5.00
pIC50 ([3]; read-out: PI3K α IC50): > 7.00

CNc1noc2cc(-c3ccc4ncc(C(=O)N5CCOCC5)n4c3)ccc12 [compound 486]
pIC50 ([1]; read-out: PI3K γ In Vitro IC50): > 5.00
pIC50 ([3]; read-out: PI3K α In Vitro IC50): > 5.00

CC1(C)CN(C(=O)c2cnc3ccc(-c4ccc5oc(N)nc5c4)cn23)CCO1 [compound 513]
pIC50 ([1]; read-out: PI3K γ In Vitro IC50): > 5.00
pIC50 ([3]; read-out: PI3K α In Vitro IC50): > 6.00

Cc1cc(-c2ccc3oc(N)nc3c2)cn2c(C(=O)N3CCOCC3)cnc12 [compound 448]
pIC50 ([1]; read-out: PI3K γ In Vitro IC50): > 5.00
pIC50 ([3]; read-out: PI3K α In Vitro IC50): > 6.00

CN1CC(n2cnc3ccc(-c4ccc5oc(N)nc5c4)cc3c2=O)C1 [compound 528]
pIC50 ([2]; read-out: PI3K β In Vitro IC50): > 5.00
pIC50 ([3]; read-out: PI3K α In Vitro IC50): > 6.00

Nc1nc2cc(-c3ccc4ncc(N5CCC(n6cccn6)CC5)nc4c3)ccc2o1 [compound 337]
pIC50 [1, 6]: > 6.00
pIC50 [3, 5]: > 7.00

Nc1nc2cc(-c3cc4nccc(-c5ccncc5)c4s3)ccc2o1 [compound 14]
pIC50 ([1]; read-out: PI3K γ IC50): > 5.00
pIC50 ([3]; read-out: PI3K α IC50): > 5.00

CNc1nc2cc(-c3ccc4ncc(C(=O)N5CCOCC5)n4c3)ccc2o1 [compound 406]
pIC50 ([2]; read-out: PI3K β In Vitro IC50): > 5.00
pIC50 ([3]; read-out: PI3K α In Vitro IC50): > 5.00

Nc1nc2cc(-c3ccc4ncc(N5CCN(CC(F)(F)F)CC5)nc4c3)ccc2o1 [compound 395]
pIC50 [1, 6]: > 7.00
pIC50 [3, 5]: > 7.00

Nc1nc2cc(-c3ccc4ncc(N5CCCCC5)nc4c3)ccc2o1 [compound 175]
pIC50 ([1]; read-out: PI3K γ IC50): > 5.00
pIC50 ([3]; read-out: PI3K α IC50): > 7.00
